Experimental data as given in ChEMBL document CHEMBL1201862, “PubChem BioAssay data set” (2004).
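Assay format: 96-well plates, 48-hour exposure. Abbreviation: GI50, concentration required for 50% inhibition of growth.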 Activity calls are given as the source filed them. Rule as the data show it: active = GI50 up to about 1.1 µM and inactive = higher.

How the values were obtained:
Experiment in all cases: inhibition of tumour cell growth, NCI panel, 48 h
786-0 = tested on: 786-0
A498 = tested on: A498
A549 = tested on: A549
ACHN = tested on: ACHN
CAKI-1 = tested on: CAKI-1
CCRF-CEM = tested on: CCRF-CEM
COLO 205 = tested on: COLO 205
DLD-1 = tested on: DLD-1
DMS-114 = tested on: DMS-114
DMS-273 = tested on: DMS-273
EKVX = tested on: EKVX
HCC 2998 = tested on: HCC 2998
HCT-116 = tested on: HCT-116
HL-60 = tested on: HL-60
HOP-18 = tested on: HOP-18
HOP-62 = tested on: HOP-62
HOP-92 = tested on: HOP-92
HT-29 = tested on: HT-29
IGROV-1 = tested on: IGROV-1
K562 = tested on: K562
KM-20L2 = tested on: KM-20L2
KM12 = tested on: KM12
LOX IMVI = tested on: LOX IMVI
LXFL 529 = tested on: LXFL 529
M14 = tested on: M14
MOLT-4 = tested on: MOLT-4
Malme-3M = tested on: Malme-3M
NCI-H226 = tested on: NCI-H226
NCI-H23 = tested on: NCI-H23
NCI-H460 = tested on: NCI-H460
NCI-H522 = tested on: NCI-H522
OVCAR-3 = tested on: OVCAR-3
OVCAR-4 = tested on: OVCAR-4
OVCAR-5 = tested on: OVCAR-5
OVCAR-8 = tested on: OVCAR-8
RPMI-8226 = tested on: RPMI-8226
RXF 393 = tested on: RXF 393
RXF 631 = tested on: RXF 631
SF-268 = tested on: SF-268
SF-295 = tested on: SF-295
SF-539 = tested on: SF-539
SK-MEL-28 = tested on: SK-MEL-28
SK-OV-3 = tested on: SK-OV-3
SN12C = tested on: SN12C
SNB-19 = tested on: SNB-19
SNB-75 = tested on: SNB-75
SNB-78 = tested on: SNB-78
SR = tested on: SR
SW-620 = tested on: SW-620
TK-10 = tested on: TK-10
U-251 = tested on: U-251
UACC-257 = tested on: UACC-257
UACC-62 = tested on: UACC-62
UO-31 = tested on: UO-31

## O=C1O/C(=C(/c2ccc(Cl)cc2)c2nc3ccccc3[nH]2)C(O)=C1c1ccc(Cl)cc1
786-0
  GI50: 3360 nM (inactive)
A498
  GI50: 2470 nM (inactive)
A549
  GI50: 2400 nM (inactive)
ACHN
  GI50: 2510 nM (inactive)
CAKI-1
  GI50: 2230 nM (inactive)
CCRF-CEM
  GI50: 1890 nM (inactive)
COLO 205
  GI50: 1590 nM (inactive)
DLD-1
  GI50: 3050 nM (inactive)
DMS-114
  GI50: 1240 nM (inactive)
DMS-273
  GI50: 2080 nM (inactive)
EKVX
  GI50: 1460 nM (inactive)
HCC 2998
  GI50: 2830 nM (inactive)
HCT-116
  GI50: 1930 nM (inactive)
HL-60
  GI50: 2000 nM (inactive)
HOP-18
  GI50: 2090 nM (inactive)
HOP-62
  GI50: 1800 nM (inactive)
HOP-92
  GI50: 1320 nM (inactive)
HT-29
  GI50: 2700 nM (inactive)
IGROV-1
  GI50: 5300 nM (inactive)
K562
  GI50: 1850 nM (inactive)
KM-20L2
  GI50: 2380 nM (inactive)
KM12
  GI50: 3290 nM (inactive)
LOX IMVI
  GI50: 2440 nM (inactive)
LXFL 529
  GI50: 2650 nM (inactive)
M14
  GI50: 4060 nM (inactive)
MOLT-4
  GI50: 1950 nM (inactive)
Malme-3M
  GI50: 2000 nM (inactive)
NCI-H226
  GI50: 2100 nM (inactive)
NCI-H23
  GI50: 1380 nM (inactive)
NCI-H460
  GI50: 2730 nM (inactive)
NCI-H522
  GI50: 944 nM (active)
OVCAR-3
  GI50: 2380 nM (inactive)
OVCAR-4
  GI50: 2400 nM (inactive)
OVCAR-5
  GI50: 2430 nM (inactive)
OVCAR-8
  GI50: 2820 nM (inactive)
RPMI-8226
  GI50: 2280 nM (inactive)
RXF 393
  GI50: 2260 nM (inactive)
RXF 631
  GI50: 891 nM (active)
SF-268
  GI50: 2460 nM (inactive)
SF-295
  GI50: 3990 nM (inactive)
SF-539
  GI50: 2650 nM (inactive)
SK-MEL-28
  GI50: 3850 nM (inactive)
SK-OV-3
  GI50: 2860 nM (inactive)
SN12C
  GI50: 2720 nM (inactive)
SNB-19
  GI50: 2930 nM (inactive)
SNB-75
  GI50: 2690 nM (inactive)
SNB-78
  GI50: 4000 nM (inactive)
SR
  GI50: 1920 nM (inactive)
SW-620
  GI50: 3480 nM (inactive)
TK-10
  GI50: 2960 nM (inactive)
U-251
  GI50: 2560 nM (inactive)
UACC-257
  GI50: 2030 nM (inactive)
UACC-62
  GI50: 2210 nM (inactive)
UO-31
  GI50: 2900 nM (inactive)
